The values below come from patent publication US20240212786A1, “METHOD OF DISCOVERING NOVEL ANTICANCER DRUG USING CO-ESSENTIALITY NETWORK, AND AN APPARATUS THEREOF” (POSTECH RESEARCH AND BUSINESS DEVELOPMENT FOUNDATION, priority 2022, published 2024).

Test [1] concerns COADREAD differential gene expression; 15 large intestine cancer cell lines. Put plainly: Reversal gene expression (RGE) effect from CMap L1000 profiles. The format is cell-based. The text has this: To estimate the efficacy of the drug by altering the gene expression to be a reversal of that in cancer conditions, the present inventors used the L1000 dataset from CMap[9]. From the L1000 dataset, the present inventors obtained 6,056 compounds with PubChem IDs and expression profiles for 978 genes directly measured in 15 cancer cell lines whose primary site was the large intestine: CL34, HCT116, HELA, HT115, HT29, LOVO, MDST8, NCIH508, NCIH716, RKO, SNU1040, SNUC5, SW480, SW620, and SW948. The present inventors initially computed the RGE effect between the differential gene expression of COADREAD (obtained via CREEDS[10], signature ID: dz552) and the compound's transcriptional profile using Zhang's connection score, that is, the absolute value of the anti-correlated, standardized ranked connection score. Since drugs have multiple transcriptional profiles for each cell line depending on the treatment dose and time, the present inventors calculated the max RGE effect for each cell line and used the median RGE effect across cell lines as a representative value. Finally, the performance of the network in predicting the drug's RGE effect was measured using the Spearman correlation coefficient between the TC score and the RGE effect of drugs that exist in both PanDrugs and CMap.

Test [2] has as its system cancer cell lines of COADREAD
To be noted: median over COADREAD cancer cell lines, PRISM secondary screen data; cited from earlier work.

In a further test the test system is Huh7 cells. The experiment in a line: MTS cell viability assay, Huh7. Format: cell-based. Conditions: Homo sapiens, Huh-7, 72 h. The procedure: (§1) The human LIHC cell lines SNU398, SK-HEP-1, and Huh7 were obtained from the Korean Cell Line Bank (Scoul, Korea), and HepG2 cells were obtained from the American Type Culture Collection (Manassas, VA, USA). SNU398 and Huh7 were cultured in Roswell Park Memorial Institute (RPMI) 1640 medium (Welgene) supplemented with 10% fetal bovine serum (FBS, Merck), 100 IU/mL penicillin, and 100 μg/mL streptomycin (Welgene). SK-HEP-1 and HepG2 were maintained in Eagle's Minimum Essential medium (EMEM, Lonza) supplemented with 10% FBS. All cells were incubated at 37° C. in a humidified incubator with 5% CO2.
(§2) To assess cell viability, SNU398, SK-HEP-1, Huh7, and HepG2 cells were plated in 96-well plates at a density of 8×10^3 or 1×10^4 cells per well. […] After incubation for 72 h, cell viability was determined using the phenazine methosulfate (PMS)/3-(4,5-dimethylthiazol-2-yl)-5-(3-carboxymethoxyphenyl)-2-(4-sulfophenyl)-2H-tetrazolium, inner salt (MTS) assay using the Cell Titer 96 Aqueous Non-Radioactive Cell Proliferation Assay kit (Promega, Madison, WI, USA) according to the manufacturer's instructions. The absorbance at 490 nm was measured using a microplate reader (Multiskan SkyHigh Microplate Spectrophotometer, Thermo Scientific). IC50 values were calculated from dose-response curves using GraphPad Prism 9 (GraphPad Software).
(Formazan colour is commonly taken as a measure of viable cells.)

Another test concerns HepG2 cells. Put plainly: MTS cell viability assay, HepG2. To be noted: Homo sapiens, 72 h. Format: cell-based. The procedure: as §1, §2
The subject of a further test is SK-HEP-1 cells. Put plainly: MTS cell viability assay, SK-HEP-1. Format: cell-based. Conditions: Homo sapiens, SK-HEP1, 72 h. The procedure: as §1, §2
A further test has as its system SNU398 cells. Put plainly: MTS cell viability assay, SNU398. To be noted: Homo sapiens, SNU-398, 72 h. The format is cell-based. The procedure:
as §1, §2

Structures can show the parent of a compound that is named as a salt.

By IC50 is commonly meant the concentration at which inhibition is half-maximal. Take `Cn1c(=O)c(F)c(Nc2ccc(I)cc2F)c2c(=O)n(C[C@@H](O)CO)cnc21` [TAK-733]: the “rank percentile of RGE effect” value in test [1] (COADREAD) is given as 91.18%. In addition, in test [1] (median across cell lines of max RGE effect, Zhang's connection score, COADREAD signature), the RGE effect is 0.123. For the same compound, in test [2], the IC50 is 1.03 nM.

For the compound `CC(C)C[C@H](NC(=O)CNC(=O)c1cc(Cl)ccc1Cl)B1OC(=O)C(CC(=O)O)(CC(=O)O)O1` [ixazomib citrate], the IC50 in the test on Huh7 cells came to 137 nM; with HepG2 cells, 197 nM; in the test on SK-HEP-1 cells, 270 nM; in the test with SNU398 cells, 746 nM.
